From US20100267561A1, “HERBICIDAL PYRIDAZINONE DERIVATIVES” (priority 2007, published 2010)

How the values were obtained:
Type in all cases: in vivo
[1] = test system: bermudagrass (Cynodon dactylon); experiment: Test B pre-/postemergence plant response; conditions: for Bermudagrass plant response rating: 8 g ai/ha
How it was run: (§1)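 Visual scoring from 0 (no effect) to 100 (complete control) against untreated controls was done 13 to 15 days after greenhouse treatment. Chemicals were formulated in a surfactant-containing non-phytotoxic solvent and applied to soil preemergence or to 1- to 4-leaf (2-18 cm) plants postemergence.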

[2] = test system: cocklebur (Xanthium strumarium); experiment: Test B pre-/postemergence plant response; conditions: for Cocklebur plant response rating: 8 g ai/ha
How it was run: as §1

[3] = test system: yellow nutsedge (Cyperus esculentus); experiment: Test B pre-/postemergence plant response
How it was run: as §1

[4] = test system: barnyardgrass (Echinochloa crus-galli); experiment: Test A pre-/postemergence plant response
How it was run: (§2)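 Ratings run 0–100 (100 = complete control), assigned visually against untreated controls roughly 10 days after treatment in a greenhouse. Compounds, formulated in non-phytotoxic solvent containing surfactant, were applied as a soil-directed preemergence spray and concurrently postemergence to one- to two-leaf plants 2–10 cm tall.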

[5] = test system: wheat (Triticum aestivum); experiment: Test A pre-/postemergence plant response
How it was run: as §2

[6] = test system: pigweed (Amaranthus retroflexus); experiment: Test A pre-/postemergence plant response
How it was run: as §2

[7] = test system: corn (Zea mays); experiment: Test A pre-/postemergence plant response
How it was run: as §2

[8] = test system: giant foxtail (Setaria faberi); experiment: Test A pre-/postemergence plant response
How it was run: as §2

[9] = test system: large crabgrass (Digitaria sanguinalis); experiment: Test A pre-/postemergence plant response
How it was run: as §2

[10] = test system: chickweed (Stellaria media); experiment: Test B postemergence plant response; conditions: for Chickweed plant response rating: 8 g ai/ha, postemergence, 0-100 scale; for Plant response rating, Chickweed: Postemergence
Protocol: At the same time, plants selected from these crop and weed species and also winter barley (Hordeum vulgare), canarygrass (Phalaris minor), chickweed (Stellaria media) and windgrass (Apera spica-venti) were treated with postemergence applications of some of the test chemicals formulated in the same manner. Plants ranged in height from 2 to 18 cm (1- to 4-leaf stage) for postemergence treatments.
Plant species in the flooded paddy test consisted of rice (Oryza sativa), umbrella sedge (Cyperus difformis), ducksalad (Heteranthera limosa) and barnyardgrass (Echinochloa crus-galli) grown to the 2-leaf stage for testing. At time of treatment, test pots were flooded to 3 cm above the soil surface, treated by application of test compounds directly to the paddy water, and then maintained at that water depth for the duration of the test. Treated plants and controls were maintained in a greenhouse for 13 to 15 days, after which time all species were compared to controls and visually evaluated. Plant response ratings, summarized in Table B, are based on a scale of 0 to 100 where 0 is no effect and 100 is complete control. A dash (-) response means no test result.

[11] = Postemergence, 16 g ai/ha, scale 0 to 100
[12] = Postemergence, 31 g ai/ha, scale 0 to 100
[13] = Postemergence, 62 g ai/ha, scale 0 to 100, 0 no effect, 100 complete control
[14] = 8 g ai/ha, postemergence, 0-100 scale
[15] = 16 g ai/ha, postemergence, 0-100 scale
[16] = Postemergence, 31 g ai/ha, 0 to 100 scale (0 no effect, 100 complete control)
[17] = Postemergence, 125 g ai/ha, 0 to 100 scale, 0 no effect, 100 complete control
[18] = Preemergence, 31 g ai/ha, 0 to 100 scale, 0 is no effect, 100 is complete control
[19] = Preemergence, 125 g ai/ha, 0 to 100 scale (0 no effect, 100 complete control)
[20] = 62 g ai/ha, scale 0 to 100, 0 no effect, 100 complete control
[21] = Preemergence, 16 g ai/ha, scale 0 to 100 (0 no effect, 100 complete control)
[22] = Preemergence, 31 g ai/ha, scale 0 to 100 (0 no effect, 100 complete control)
[23] = Preemergence, 62 g ai/ha, 0 to 100 scale, 0 no effect, 100 complete control

COCc1cc(-c2ccc(Br)cc2)nn1-c1c(O)cnn(C)c1=O [Compound 68]
100: Plant response rating, Barnyardgrass [4, 17] | Plant response rating, Foxtail, Giant [8, 19]
10: Plant response rating, Barnyardgrass [4, 16] | Plant response rating, Foxtail, Giant [8, 18] | Plant response rating, Crabgrass, Large [9, 16] | Plant response rating, Crabgrass, Large [9, 17] | Plant response rating, Crabgrass, Large [9, 19]
90: Plant response rating, Barnyardgrass [4, 19] | Plant response rating, Foxtail, Giant [8, 17]
50: Plant response rating, Corn [7, 17] | Plant response rating, Foxtail, Giant [8, 16]
0: Bermudagrass plant response rating ([1]; postemergence, 0-100 scale) | Plant response rating, Bermudagrass [1, 11] | Plant response rating, Bermudagrass [1, 12] | Plant response rating, Bermudagrass [1, 13] | Cocklebur plant response rating ([2]; postemergence, 0-100 scale) | Plant response rating, Cocklebur [2, 11] | Plant response rating, Cocklebur [2, 12] | Plant response rating, Cocklebur [2, 13] | Nutsedge, Yellow plant response rating [3, 14] | Nutsedge, Yellow plant response rating [3, 15] | Plant response rating, Nutsedge, Yellow [3, 12] | Plant response rating, Nutsedge, Yellow [3, 13] | Plant response rating, Barnyardgrass [4, 18] | Plant response rating, Wheat [5, 16] | Plant response rating, Wheat [5, 17] | Plant response rating, Wheat [5, 18] | Plant response rating, Pigweed [6, 16] | Plant response rating, Pigweed [6, 17] | Plant response rating, Pigweed [6, 18] | Plant response rating, Pigweed [6, 19] | Plant response rating, Corn [7, 16] | Plant response rating, Corn [7, 18] | Plant response rating, Corn [7, 19] | Plant response rating, Crabgrass, Large [9, 18] | Chickweed plant response rating [10] | Plant response rating, Chickweed ([10]; 16 g ai/ha, scale 0 to 100) | Plant response rating, Chickweed ([10]; 31 g ai/ha, scale 0 to 100) | Plant response rating, Chickweed [10, 20]

Cc1cc(-c2ccc(Cl)cc2)nn1-c1c(OC(=S)N(C)C)cnn(C)c1=O [Compound 69]
20: Bermudagrass plant response rating ([1]; postemergence, 0-100 scale) | Plant response rating, Barnyardgrass [4, 18] | Plant response rating, Corn [7, 18] | Plant response rating, Foxtail, Giant [8, 18]
95: Plant response rating, Bermudagrass [1, 12]
98: Plant response rating, Bermudagrass [1, 13]
65: Plant response rating, Bermudagrass [1, 11]
80: Plant response rating, Crabgrass, Large [9, 17]
30: Plant response rating, Wheat [5, 17] | Plant response rating, Corn [7, 19]
70: Plant response rating, Barnyardgrass [4, 19]
40: Plant response rating, Crabgrass, Large [9, 16]
60: Plant response rating, Corn [7, 16]
0: Bermudagrass plant response rating ([1]; Preemergence, scale 0 to 100 (0 no effect, 100 complete control)) | Plant response rating, Bermudagrass [1, 21] | Plant response rating, Bermudagrass [1, 22] | Plant response rating, Bermudagrass [1, 23] | Cocklebur plant response rating ([2]; postemergence, 0-100 scale) | Plant response rating, Cocklebur [2, 11] | Plant response rating, Cocklebur [2, 12] | Plant response rating, Cocklebur [2, 13] | Plant response rating, Cocklebur [2, 21] | Plant response rating, Cocklebur [2, 22] | Plant response rating, Cocklebur [2, 23] | Cocklebur plant response rating ([2]; Preemergence, scale 0 to 100) | Nutsedge, Yellow plant response rating [3, 14] | Nutsedge, Yellow plant response rating [3, 15] | Plant response rating, Nutsedge, Yellow [3, 12] | Plant response rating, Nutsedge, Yellow [3, 13] | Plant response rating, Nutsedge, Yellow [3, 22] | Plant response rating, Nutsedge, Yellow [3, 23] | Nutsedge, Yellow plant response rating ([3]; Preemergence, 8 g ai/ha, scale 0 to 100) | Nutsedge, Yellow plant response rating ([3]; Preemergence, 16 g ai/ha, scale 0 to 100) | Plant response rating, Wheat [5, 16] | Plant response rating, Wheat [5, 18] | Plant response rating, Wheat [5, 19] | Plant response rating, Pigweed [6, 16] | Plant response rating, Pigweed [6, 17] | Plant response rating, Pigweed [6, 18] | Plant response rating, Pigweed [6, 19] | Plant response rating, Crabgrass, Large [9, 18] | Chickweed plant response rating [10] | Plant response rating, Chickweed ([10]; 16 g ai/ha, scale 0 to 100) | Plant response rating, Chickweed ([10]; 31 g ai/ha, scale 0 to 100) | Plant response rating, Chickweed [10, 20]
100: Plant response rating, Barnyardgrass [4, 17] | Plant response rating, Foxtail, Giant [8, 17]
90: Plant response rating, Barnyardgrass [4, 16] | Plant response rating, Corn [7, 17] | Plant response rating, Foxtail, Giant [8, 16] | Plant response rating, Foxtail, Giant [8, 19] | Plant response rating, Crabgrass, Large [9, 19]
